Experimental data as given in patent publication US20230248718A1, “PHARMACEUTICAL COMBINATION OF ANTISPASMODIC AND ANXIOLYTIC AGENT” (priority 2022, published 2023).
Structures can show the parent of a compound that is named as a salt.

Tests used:
[1] = cited from earlier work
[2] = Method: Therefore, drug-interaction studies were undertaken by the inventors and the samples were evaluated for chemical stability.
[3] = cited from earlier work; remark: listed apart in the source
[4] = oral, 80 mg strength IR tablets; cited from earlier work

Question: Which “plasma levels after administration is discontinued” value ([1]; after discontinuation) does the source give for `CNC1=Nc2ccc(Cl)cc2C(c2ccccc2)=[N+]([O-])C1.Cl` [Chlordiazepoxide HCl, Chlordiazepoxide hydrochloride] here?
Answer: The value was “decline slowly over a period of several days”.

Question: What about the half-life ([1]; in vivo) of the same molecule?
Answer: Its half-life is 24 to 48 h.

Question: And the “time for peak blood levels to be reached” value ([1]; in vivo)?
Answer: Its value is “several hours”.

Question: What does the source list for `CCOc1ccc(/C=C2\NCCc3cc(OCC)c(OCC)cc32)cc1OCC` [Drotaverine HCl, Drotaverine hydrochloride]?
Answer: chemical stability / degradation in acidic environment [2]: best chemical stability; degradation in basic conditions [2]: degrades significantly; degradation in oxidative conditions / peroxide solution [2]: degrades significantly

Question: Which “oral LD50” value [3] does the source give for `CCOc1ccc(/C=C2\NCCc3cc(OCC)c(OCC)cc32)cc1OCC` [Drotaverine] here?
Answer: Its value is over 1000 mg/Kg body weight.

Question: And the “drug absorption from small intestine” value [4]?
Answer: The value was about 90%.
